system: IFNα-induced pSTAT5 (pY694) in CD3 positive cells of human whole blood; experiment: IFNα-Induced STAT Phosphorylation in Human Whole Blood; type: cell-based; settings: Homo sapiens, 1 h compound incubation, 1000 U/mL recombinant human IFNα A/D for 15 min, pSTAT5 in CD3 positive population, read-out: Human WB IFNα-Induced Stat Phosph. (IC50)
Method in brief: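 Read-out is median fluorescence intensity of pSTAT5 (pY694) in the CD3-positive gate, by flow cytometry after fix/lyse and permeabilization. Before that, whole human blood anticoagulated with EDTA or ACD-A received compound for an hour and 1000 U/mL IFNα A/D for 15 min.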

Row | Compound | IC50 [nM]
1 | [2H]C([2H])([2H])NC(=O)c1nnc(NC(=O)C2CC2)cc1Nc1cccc(-c2ncc(C(=O)NCC34CCN(CC3)CC4)s2)c1OC [Example 287] | 1260
2 | [2H]C([2H])([2H])NC(=O)c1nnc(NC(=O)C2CC2)cc1Nc1cccc(-c2nc(C)c(C(=O)N3CCC(CCN4CCCC4)CC3)s2)c1OC [Example 371] | 310
3 | [2H]C([2H])([2H])NC(=O)c1cnc(NC(=O)C2CC2)cc1Nc1cccc(-c2nc(CCOC(C)(C)C)no2)c1OC [Example 227] | 620
4 | COc1c(Nc2cc(N)nnc2C(N)=O)cccc1-c1noc(CN2CCN(S(C)(=O)=O)CC2)n1 [Example 109] | > 10000
5 | COc1c(Nc2cc(NC(=O)C3CC3)ncc2C(N)=O)cccc1-c1nc(CN2CCOCC2)no1 [Example 576, 6-(cyclopropanecarboxamido)-4-((2-methoxy-3-(3-(morpholinomethyl)-1,2,4-oxadiazol-5-yl)phenyl)amino)nicotinamide] | 13
6 | [2H]C([2H])([2H])NC(=O)c1nnc(NC(=O)C2CC2)cc1Nc1cccc(-c2noc(CN3CCN(C(=O)OC)CC3)n2)c1OC [Example 14] | 50
7 | [2H]C([2H])([2H])NC(=O)c1nnc(NC(=O)C2CC2)cc1Nc1cccc(-c2nc([C@H](NC(=O)COC)[C@H](C)O)no2)c1OC [Example 205] | 850
8 | COc1c(Nc2cc(NC(=O)C3CC3)nnc2C(N)=O)cccc1-c1noc([C@@H](C)NS(C)(=O)=O)n1 [Example 47] | 140
9 | [2H]C([2H])([2H])NC(=O)c1nnc(NC(=O)C2CC2)cc1Nc1cccc(-c2nc(CN3CCCC3)no2)c1OC [Example 209] | 1370
10 | COc1c(Nc2cc(N)nnc2C(N)=O)cccc1-c1noc(C(=O)NC2CCN(C)CC2)n1 [Example 116] | 4970
11 | [2H]C([2H])([2H])NC(=O)c1nnc(NC(=O)C2CC2)cc1Nc1cccc(-c2nc(CN3CCN(C(=O)c4ccccn4)CC3)no2)c1OC [Example 130] | 490
12 | COc1c(Nc2cc(NC(=O)C3CC3)nnc2C(N)=O)cccc1-c1noc(CNS(C)(=O)=O)n1 [Example 38] | 30
13 | [2H]C([2H])([2H])NC(=O)c1nnc(NC(=O)C2CC2)cc1Nc1cccc(-c2noc(C(=O)NC3CCC(N(C)C)CC3)n2)c1OC (stereo not drawn) [Example 24] | 240

More lines, now with the values ahead:

Row | IC50 [nM] | Compound
14 | 240 | [2H]C([2H])([2H])NC(=O)c1nnc(Nc2cc(C(C)(C)O)ccn2)cc1Nc1cc(F)cc(-c2cc(C(=O)N(C)C)n(C)n2)c1OC [Example 550]
15 | 23 | [2H]C([2H])([2H])NC(=O)c1nnc(Nc2ccc(C)nn2)cc1Nc1cccc(-c2ncc(C(C)O)s2)c1OC (stereo not drawn) [Example 392]
16 | 2690 | [2H]C([2H])([2H])NC(=O)c1nnc(NC(=O)C2CC2)cc1Nc1cccc(-c2ncc(CNC(=O)CC)s2)c1OC [Example 262]
17 | 160 | [2H]C([2H])([2H])NC(=O)c1nnc(NC(=O)C2CC2)cc1Nc1cccc(-c2nc([C@H](N)CO)no2)c1OC [Example 221]
18 | 470 | [2H]C([2H])([2H])NC(=O)c1nnc(NC(=O)C2CC2)cc1Nc1cccc(-c2ncc(NC(C)=O)s2)c1OC [Example 279]
19 | > 10000 | [2H]C([2H])([2H])NC(=O)c1nnc(NC(=O)C2CC2)cc1Nc1cccc(-c2ncc(C(=O)NC(C)(C)C)s2)c1OC [Example 309]
20 | 140 | [2H]C([2H])([2H])NC(=O)c1nnc(NC(=O)C2CC2)cc1Nc1cccc(-c2nc([C@H](N)[C@H](C)O)no2)c1OC [Example 204]
21 | 1680 | [2H]C([2H])([2H])NC(=O)c1nnc(NC(=O)C2CC2)cc1Nc1cccc(-c2nc([C@H](C)NC(C)=O)no2)c1OC [Example 183]
22 | 40 | [2H]C([2H])([2H])NC(=O)c1nnc(NC(=O)C2CC2)cc1Nc1cccc(-c2ncc(C(=O)N3CCN(CCO)CC3)s2)c1OC [Example 269]
23 | 60 | [2H]C([2H])([2H])NC(=O)c1nnc(NC(=O)C2CC2)cc1Nc1cccc(-c2nc(C)c(C(=O)N(C)C)s2)c1OC [Example 367]
24 | 130 | [2H]C([2H])([2H])NC(=O)c1nnc(NC(=O)C2CC2)cc1Nc1cccc(-c2ncc(C(=O)NCCNC(C)=O)s2)c1OC [Example 304]
25 | 150 | [2H]C([2H])([2H])NC(=O)c1nnc(NC(=O)C2CC2)cc1Nc1cccc(-c2ncc(C(=O)NCc3ccccc3)s2)c1OC [Example 289]
26 | 510 | [2H]C([2H])([2H])NC(=O)c1nnc(NC(=O)C2CC2)cc1Nc1cccc(-c2nc(C)c(C(=O)NCCOC)s2)c1OC [Example 366]
27 | 440 | [2H]C([2H])([2H])NC(=O)c1nnc(NC(=O)C2CC2)cc1Nc1cccc(-c2nc(C)c(C(=O)NC(C)C)s2)c1OC [Example 364]

Reference: patent publication US12240840B2, “Amide-substituted heterocyclic compounds for the treatment of conditions related to the modulation of IL-12, IL-23 and/or IFN-alpha” (BRISTOL-MYERS SQUIBB COMPANY, priority 2018, dated 2025)
